{"source": "patent US20260325661A1", "about": "“ANTIBODY-CONJUGATED IMMUNO-ACTIVATING SMALL MOLECULE COMPOUND, AND USE” (SHENZHEN CONJUGENIX PHARMACEUTICAL TECHNOLOGY CO., LTD, priority 2023, published 2026)", "test_system": "human peripheral blood mononuclear cells (PBMCs)", "assay": "ELISA assay of immunocyte activator: induction of IFN-γ in human PBMCs", "type": "cell-based", "settings": "24 h, 37 °C, read-out: EC50 IFN-γ ratio (inducing human PBMCs to produce IFN-γ)", "description": "The immune activity of each compound is represented by the function of inducing human peripheral blood mononuclear cells (PBMCs) to produce the immune cytokine IFN-γ by, and the EC50 values thereof are shown in Table 3.\n• 1) Peripheral blood samples from healthy human volunteer were collected into heparin anticoagulant tubes to reach 5 mL of fresh blood, and PBS was added at a ratio of 1:1 to dilute the blood (2 mL+2 mL in conventional blood collection tubes). • 2) 5 mL of lymphocyte separation medium was put in a 15 mL sterile centrifuge tube for use. • 3) The diluted blood was aspirated and slowly added from 1 cm above the separation medium along the tube wall, so that the diluted blood overlaid the separation medium and formed a distinct interface therewith. • 4) The centrifuge tube was centrifuged at 2000 rpm at room temperature for 20 min. Now five layers formed in the centrifuge tube: the top layer was plasma layer, and the layer between the plasma layer and the lymphocyte separation medium was the lymphocyte layer as a white film. • 5) The mononuclear cell layer as a white film in the middle was aspirated carefully and mononuclear cells were aspirated as many as possible. The mononuclear cells were washed by more than 5 volumes of PBS twice, and each time, the mononuclear cells were centrifuged at 1500 rpm for 10 min. • 6) The supernatant was removed, then 1 mL of 1640 medium was added and mixed uniformly. A small amount of the mixture was taken for cell counting.\nThe prepared PBMCs were plated in a 96-well plate (Costar, 3894) (2×10^5 cells per well). Each compound in Table 3 was taken and added into the wells with plated cells at ten concentrations with uniform gradient distribution (0.0001-10 μM, diluted with […] medium containing […]).", "key": {"[1]": {"settings": "Homo sapiens, PBMC, no pretreatment marked"}, "[2]": {"settings": "Homo sapiens, PBMC, Note c: sample pretreated with Cathepsin-B (10 μg) in PBS, room temperature, 3 h"}, "[3]": {"settings": "Homo sapiens, PBMC, pH 6, 24 h, Note b: sample pretreated with equimolar glutathione, PBS pH 6, 37 °C"}}, "note": "Where two headings read alike, the source gives them in different places."}
{"smiles": "COCCOc1nc(N)c2[nH]c(=O)n(Cc3ccc(CNC(=O)CCC(=O)NC(CCCCc4cn(CCOCCOCCOCCNC(=O)CCN5C(=O)C=CC5=O)nn4)C(=O)NCCOCCOCCOCCNC(=O)OC4CC/C=C/CCC4)cc3)c2n1", "note": "(centres unmarked) [Compound K26]", "values": [{"measurement": "EC50", "setting": "[1]", "result": 2, "unit": "nM"}]}
{"smiles": "COCCOc1nc(N)c2[nH]c(=O)n(Cc3ccc(CNC(=O)CCC(=O)NC(CCCCc4cn(CCCCN5CCN(CCCNC(=S)N6CCCC(n7nc(-c8ccc(Oc9ccccc9)cc8)c8c(N)ncnc87)C6)CC5)nn4)C(=O)N4CCN(C(=O)OCc5ccc(NC(=O)[C@H](CCCNC(N)=O)NC(=O)[C@@H](NC(=O)CCOCCOCCOCCOCCN6C(=O)C=CC6=O)C(C)C)cc5)CC4)cc3)c2n1", "note": "(some centres unmarked) [Compound K27]", "values": [{"measurement": "EC50", "setting": "[1]", "result": 250, "unit": "nM"}]}
{"smiles": "COCCOc1nc(N)c2[nH]c(=O)n(Cc3ccc(CNC(=O)CCC(=O)NC(CCCCNC(=O)OCc4ccc(NC(=O)[C@H](CCCNC(N)=O)NC(=O)[C@@H](NC(=O)CCCCCN5C(=O)C=CC5=O)C(C)C)cc4)C(=O)NCCOCCOCCOCCOc4ccc(-c5nnc(C)nn5)cc4)cc3)c2n1", "note": "(some centres unmarked) [Compound K29]", "values": [{"measurement": "EC50", "setting": "[1]", "result": 31, "unit": "nM"}]}
{"smiles": "COCCOc1nc(N)c2[nH]c(=O)n(Cc3ccc(CNC(=O)CCC(=O)NC(CCCCNC(=O)OCc4ccc(NC(=O)[C@H](CCCNC(N)=O)NC(=O)[C@@H](NC(=O)CCCCCN5C(=O)C=CC5=O)C(C)C)cc4)C(=O)NCCOCCOCCOCCNC(=O)OC4CC/C=C/CCC4)cc3)c2n1", "note": "(some centres unmarked) [Compound K30]", "values": [{"measurement": "EC50", "setting": "[1]", "result": 59, "unit": "nM"}]}
{"smiles": "COCCOc1nc(N)c2[nH]c(=O)n(Cc3ccc(CNC(=O)CCC(=O)NC(CCCCc4cn(CCOCCOCCOCCNC(=O)CCOCCOCCNC(=O)OCC5C6CCC#CCCC65)nn4)C(=O)N[C@H](C(=O)N[C@@H](CCCNC(N)=O)C(=O)Nc4ccc(COC(=O)NC[C@H](C)c5ccc(-c6c(O)cc(C)c7[nH]c(=O)c8sccc8c67)cc5)cc4)C(C)C)cc3)c2n1", "note": "(some centres unmarked) [Compound K31]", "values": [{"measurement": "EC50", "setting": "[1]", "result": 29, "unit": "nM"}]}
{"smiles": "C#Cc1c(F)ccc2cc(O)cc(-c3ncc4c(N5CC6CCC(C5)N6C(=O)OCc5ccc(NC(=O)[C@H](CCCNC(N)=O)NC(=O)[C@@H](NC(=O)C(CCCCc6cn(CCOCCOCCOCCNC(=O)CCN7C(=O)C=CC7=O)nn6)NC(=O)CCC(=O)NCc6ccc(Cn7c(=O)[nH]c8c(N)nc(OCCOC)nc87)cc6)C(C)C)cc5)nc(OC[C@@]56CCCN5C[C@H](F)C6)nc4c3F)c12", "note": "(some centres unmarked) [Compound K32]", "values": [{"measurement": "EC50", "setting": "[1]", "result": 160, "unit": "nM"}]}
{"smiles": "C#Cc1c(F)ccc2cc(O)cc(-c3c(Cl)cc4c(N5CC6CCC(C5)N6C(=O)OCc5ccc(NC(=O)[C@H](CCCNC(N)=O)NC(=O)[C@@H](NC(=O)C(CCCCc6cn(CCOCCOCCOCCNC(=O)CCN7C(=O)C=CC7=O)nn6)NC(=O)CCC(=O)NCc6ccc(Cn7c(=O)[nH]c8c(N)nc(OCCOC)nc87)cc6)C(C)C)cc5)nc(OC[C@@]56CCCN5C[C@H](F)C6)nc4c3F)c12", "note": "(some centres unmarked) [Compound K33]", "values": [{"measurement": "EC50", "setting": "[1]", "result": 180, "unit": "nM"}]}
{"smiles": "CCCCOc1nc(N)c2[nH]c(=O)n(Cc3ccc(NC(=S)Nc4sc5c(c4C(=O)N[C@@H](CCCCNC(=O)OCc4ccc(NC(=O)[C@H](CCCNC(N)=O)NC(=O)[C@@H](NC(=O)CCCCCN6C(=O)C=CC6=O)C(C)C)cc4)C(=O)NCCOCCOCCOCCOCCNC(=O)CCC(=O)N4Cc6ccccc6C#Cc6ccccc64)CCCC5)cc3)c2n1", "note": "[Compound K34]", "values": [{"measurement": "EC50", "setting": "[1]", "result": 131, "unit": "nM"}]}
{"smiles": "C=CC(=O)Nc1cc(Nc2nccc(-c3cn(C)c4ccccc34)n2)c(OC)cc1N(C)CCN(C)CCCCCCNC(=O)C(CCCCc1cn(CCOCCOCCOCCNC(=O)CCC(=O)N2Cc3ccccc3C#Cc3ccccc32)nn1)NC(=O)CCC(=O)NCc1ccc(Cn2c(=O)[nH]c3c(N)nc(OCCOC)nc32)cc1", "note": "(centres unmarked) [Compound K35]", "values": [{"measurement": "EC50", "setting": "[1]", "result": 260, "unit": "nM"}]}
{"smiles": "C=CC(=O)Nc1cc(Nc2nccc(-c3cn(C)c4ccccc34)n2)c(OC)cc1N(C)CCN(C)CCCCCCNC(=O)[C@@H](CCCCn1cc(COCCOCCOCCOCCNC(=O)CCC(=O)N2Cc3ccccc3C#Cc3ccccc32)nn1)NC(=O)COCCOCCOCCn1cc(Cn2c(=O)[nH]c3c(N)nc(OCCCC)nc32)nn1", "note": "[Compound K36]", "values": [{"measurement": "EC50", "setting": "[1]", "result": 110, "unit": "nM"}]}
{"smiles": "C=CC(=O)Nc1cc(Nc2nccc(-c3cn(C)c4ccccc34)n2)c(OC)cc1N(C)CCN(C)CCCCCCNC(=O)C(CCCCNC(=O)OCc1ccc(NC(=O)[C@H](CCCNC(N)=O)NC(=O)[C@@H](NC(=O)CCOCCOCCOCCOCCNC(=O)CCC(=O)N2Cc3ccccc3C#Cc3ccccc32)C(C)C)cc1)NC(=O)CCC(=O)NCc1ccc(Cn2c(=O)[nH]c3c(N)nc(OCCOC)nc32)cc1", "note": "(some centres unmarked) [Compound K37]", "values": [{"measurement": "EC50", "setting": "no pretreatment marked", "result": 220, "unit": "nM"}]}
{"smiles": "C=CC(=O)Nc1cc(Nc2nccc(-c3cn(C)c4ccccc34)n2)c(OC)cc1N(C)CCN(C)CCOCCOCCOCCn1cc(Cn2c(=O)n(C(=O)NCCNC(=O)OCc3ccc(NC(=O)[C@H](CCCNC(N)=O)NC(=O)[C@@H](NC(=O)CCOCCOCCOCCOCCNC(=O)CCC(=O)N4Cc5ccccc5C#Cc5ccccc54)C(C)C)cc3)c3c(N)nc(OCCCC)nc32)nn1", "note": "[Compound K38]", "values": [{"measurement": "EC50", "setting": "[2]", "result": 90, "unit": "nM"}]}
{"smiles": "C=C(CC(=O)OC)C(=O)NCc1ccc(Cn2c(=O)n(C(=O)NCCNC(=O)OCc3ccc(NC(=O)[C@H](CCCNC(N)=O)NC(=O)[C@@H](NC(=O)CCOCCOCCOCCOCCNC(=O)CCC(=O)N4Cc5ccccc5C#Cc5ccccc54)C(C)C)cc3)c3c(N)nc(OCCOC)nc32)cc1", "note": "[Compound K39]", "values": [{"measurement": "EC50", "setting": "[2]", "result": 1, "unit": "nM"}]}
{"smiles": "COCCOc1nc(N)c2[nH]c(=O)n(Cc3ccc(CNC(=O)CCC(=O)NC(CCCCc4cnnn4CCOCCOCCOCCN=C=S)C(=O)NCCCC(=O)Nc4ccc(C#CC#N)cc4)cc3)c2n1", "note": "(centres unmarked) [Compound K40]", "values": [{"measurement": "EC50", "setting": "[1]", "result": 1, "unit": "nM"}]}
{"smiles": "CCCCOc1nc(N)c2c(n1)n(CCCc1cn(CCOCCOCCOCCNC(=O)CCN3C(=O)C=CC3=O)nn1)c(=O)n2COC(=O)OC(C)C", "note": "[Compound K41]", "values": [{"measurement": "EC50", "setting": "Homo sapiens, PBMC, pH 5, 24 h, Note d: sample pretreated by hydrolysis, acetate buffer pH 5, 37 °C, 72 h", "result": 2, "unit": "nM"}]}
{"smiles": "CC[C@@]1(O)C(=O)OCc2c1cc1n(c2=O)Cc2c-1nc1cc(F)c(C)c3c1c2[C@@H](NC(=O)CNC(=O)OCn1c(=O)n(Cc2ccc(CNC(=O)CCc4cn(CCOCCOCCOCCNC(=O)CCN5C(=O)C=CC5=O)nn4)cc2)c2nc(OCCOC)nc(N)c21)CC3", "note": "[Compound K42]", "values": [{"measurement": "EC50", "setting": "Homo sapiens, PBMC, Note d: sample pretreated by hydrolysis, acetate buffer pH 5, 37 °C, 72 h", "result": 7, "unit": "nM"}]}
{"smiles": "C=C(COC(=O)n1c(=O)n(CCCc2cn(CCOCCOCCOCCOCCN=[N+]=[N-])nn2)c2nc(OCCCC)nc(N)c21)C(=O)OCC", "note": "[Compound K44]", "values": [{"measurement": "EC50", "setting": "[3]", "result": 2, "unit": "nM"}]}
{"smiles": "C=C(COC(=O)n1c(=O)n(Cc2ccc(CNC(=O)CCc3cn(CCOCCOCCOCCOCCN=[N+]=[N-])nn3)cc2)c2nc(OCCOC)nc(N)c21)C(=O)OCC", "note": "[Compound K45]", "values": [{"measurement": "EC50", "setting": "[3]", "result": 10, "unit": "nM"}]}
{"smiles": "C=CC(=O)Nc1cc(Nc2nccc(-c3cn(C)c4ccccc34)n2)c(OC)cc1N(C)CCN(C)CCCCCCNC(=N)C(CCCCc1cn(CCOCCOCCOCCN=C=S)nn1)NC(=O)CCC(=O)NCc1ccc(Cn2c(=O)[nH]c3c(N)nc(OCCOC)nc32)cc1", "note": "(centres unmarked) [Compound K46]", "values": [{"measurement": "EC50", "setting": "[1]", "result": 90, "unit": "nM"}]}
{"smiles": "CCCCOc1nc(N)c2[nH]c(=O)n(Cc3ccc(NC(=S)Nc4sc5c(c4C(=O)NC(CCCCN=C=S)C(=O)NCCOCCOCCOCCOCCNC(=O)CCC(=O)N4Cc6ccccc6C#Cc6ccccc64)CCCC5)cc3)c2n1", "note": "(centres unmarked) [Compound K47]", "values": [{"measurement": "EC50", "setting": "[1]", "result": 150, "unit": "nM"}]}
{"smiles": "COCCOc1nc(N)c2[nH]c(=O)n(Cc3ccc(CNC(=O)CCC(=O)NC(CCCCc4cn(CCOCCOCCOCCN=C=S)nn4)C(=O)NCCOCCOCCOCCNC(=O)OC4CC/C=C/CCC4)cc3)c2n1", "note": "(centres unmarked) [Compound K48]", "values": [{"measurement": "EC50", "setting": "[1]", "result": 89, "unit": "nM"}]}
{"smiles": "C=C(CN1CCC(Cn2c(=O)[nH]c3c(N)nc(O[C@@H](C)CCC)nc32)CC1)C(=O)NCCOCCOCCOCCOCCNC(=O)CCC(=O)N1Cc2ccccc2C#Cc2ccccc21", "note": "[Compound K49]", "values": [{"measurement": "EC50", "setting": "[1]", "result": 11, "unit": "nM"}]}
{"smiles": "C=C(CN1CCC(Cn2c(=O)[nH]c3c(N)nc(OCCCC)nc32)CC1)C(=O)NCCOCCOCCOCCOCCNC(=O)CCC(=O)N1Cc2ccccc2C#Cc2ccccc21", "note": "[Compound K50]", "values": [{"measurement": "EC50", "setting": "[1]", "result": 23, "unit": "nM"}]}
